In brackets after ≈: the same amount, converted by molar mass.
What was measured:
[1] = Kinetic solubility of compound at pH 7.4; settings: buffer
Estrogen receptor [2] = target: T1, Estrogen receptor (Homo sapiens, UniProt P03372); settings: mcf7
T1 sequence (P03372 whole entry): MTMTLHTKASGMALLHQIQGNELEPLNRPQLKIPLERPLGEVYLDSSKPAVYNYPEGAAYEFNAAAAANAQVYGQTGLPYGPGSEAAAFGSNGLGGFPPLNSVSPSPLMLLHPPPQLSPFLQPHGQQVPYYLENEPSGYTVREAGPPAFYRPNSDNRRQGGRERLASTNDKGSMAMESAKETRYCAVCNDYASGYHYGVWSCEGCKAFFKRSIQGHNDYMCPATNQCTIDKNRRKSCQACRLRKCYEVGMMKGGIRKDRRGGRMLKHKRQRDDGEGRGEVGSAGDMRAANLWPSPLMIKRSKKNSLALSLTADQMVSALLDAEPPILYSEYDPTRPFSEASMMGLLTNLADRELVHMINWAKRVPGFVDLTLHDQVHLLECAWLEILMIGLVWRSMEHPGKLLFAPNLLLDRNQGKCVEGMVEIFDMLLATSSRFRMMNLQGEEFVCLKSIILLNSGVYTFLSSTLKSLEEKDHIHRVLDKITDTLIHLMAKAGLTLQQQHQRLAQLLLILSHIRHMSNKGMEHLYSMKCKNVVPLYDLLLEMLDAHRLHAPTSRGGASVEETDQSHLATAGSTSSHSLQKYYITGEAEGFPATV
Description: Induction of estrogen receptor degradation in human MCF7 cells incubated for 4 hrs by Alexafluor -488 conjugate anti-mouse IgG staining based fluorescence method

MCF7 = test: cells; settings: Homo sapiens, MCF7, 72 h
Description: Antiproliferative activity against human MCF-7 cells incubated for 72 hrs by Cell-titer Glo assay

in vitro [3] = settings: human
in vitro [4] = settings: rat
[5] = Clearance in Sprague-Dawley rat at 1 mg/kg, iv or po measured after 0.033 to 24 hrs by LC/MS/MS analysis; settings: in vivo
[6] = Apparent permeability in MDCK cells across apical to basolateral side at 10 uM incubated for 3 hrs by LC-MS/MS analysis; settings: dog
[7] = Distribution coefficient, logD of the compound at pH 7.4; settings: octanol/water
in vivo [8] = settings: Sprague-Dawley, rat, po, 5 mg/kg
in vitro [9] = settings: human; remark: listed apart in the source
in vitro [10] = settings: rat; remark: listed apart in the source
Estrogen receptor [11] = target: T1, Estrogen receptor
Description: Antagonist activity at estrogen receptor in human T47D cells incubated for 18 hrs by ultra high sensitivity luminescence reporter gene assay

Nav1.5 = Nav1.5 (Homo sapiens, UniProt Q14524); test: Inhibition of human Nav1.5 expressed in CHO cells at 10 uM by QPatch HT assay; settings: CHO cells expressing human Nav1.5
Cav1.2 = Cav1.2 (Homo sapiens, UniProt Q13936); test: Inhibition of human Cav1.2 expressed in CHO cells at 10 uM by QPatch HT assay; settings: CHO cells expressing human Cav1.2
[12] = rat, in vivo, iv, 1 mg/kg
in vivo [13] = settings: Sprague-Dawley, rat, iv, 1 mg/kg
[14] = target: T2, Estrogen receptor (Homo sapiens) (UniProt P03372); settings: MCF7, dose 0.0002-100 nM, time 4.0 hrs
T2 sequence (whole entry): T1 sequence (P03372 whole entry)

[15] = target: T2, Estrogen receptor (Homo sapiens); settings: MCF7, dose 1.0 nM, time 0.5-24 hrs
in vivo [16] = settings: Sprague-Dawley, rat, po, 1 mg/kg

Sequence of Cav1.2 (Q13936 whole entry): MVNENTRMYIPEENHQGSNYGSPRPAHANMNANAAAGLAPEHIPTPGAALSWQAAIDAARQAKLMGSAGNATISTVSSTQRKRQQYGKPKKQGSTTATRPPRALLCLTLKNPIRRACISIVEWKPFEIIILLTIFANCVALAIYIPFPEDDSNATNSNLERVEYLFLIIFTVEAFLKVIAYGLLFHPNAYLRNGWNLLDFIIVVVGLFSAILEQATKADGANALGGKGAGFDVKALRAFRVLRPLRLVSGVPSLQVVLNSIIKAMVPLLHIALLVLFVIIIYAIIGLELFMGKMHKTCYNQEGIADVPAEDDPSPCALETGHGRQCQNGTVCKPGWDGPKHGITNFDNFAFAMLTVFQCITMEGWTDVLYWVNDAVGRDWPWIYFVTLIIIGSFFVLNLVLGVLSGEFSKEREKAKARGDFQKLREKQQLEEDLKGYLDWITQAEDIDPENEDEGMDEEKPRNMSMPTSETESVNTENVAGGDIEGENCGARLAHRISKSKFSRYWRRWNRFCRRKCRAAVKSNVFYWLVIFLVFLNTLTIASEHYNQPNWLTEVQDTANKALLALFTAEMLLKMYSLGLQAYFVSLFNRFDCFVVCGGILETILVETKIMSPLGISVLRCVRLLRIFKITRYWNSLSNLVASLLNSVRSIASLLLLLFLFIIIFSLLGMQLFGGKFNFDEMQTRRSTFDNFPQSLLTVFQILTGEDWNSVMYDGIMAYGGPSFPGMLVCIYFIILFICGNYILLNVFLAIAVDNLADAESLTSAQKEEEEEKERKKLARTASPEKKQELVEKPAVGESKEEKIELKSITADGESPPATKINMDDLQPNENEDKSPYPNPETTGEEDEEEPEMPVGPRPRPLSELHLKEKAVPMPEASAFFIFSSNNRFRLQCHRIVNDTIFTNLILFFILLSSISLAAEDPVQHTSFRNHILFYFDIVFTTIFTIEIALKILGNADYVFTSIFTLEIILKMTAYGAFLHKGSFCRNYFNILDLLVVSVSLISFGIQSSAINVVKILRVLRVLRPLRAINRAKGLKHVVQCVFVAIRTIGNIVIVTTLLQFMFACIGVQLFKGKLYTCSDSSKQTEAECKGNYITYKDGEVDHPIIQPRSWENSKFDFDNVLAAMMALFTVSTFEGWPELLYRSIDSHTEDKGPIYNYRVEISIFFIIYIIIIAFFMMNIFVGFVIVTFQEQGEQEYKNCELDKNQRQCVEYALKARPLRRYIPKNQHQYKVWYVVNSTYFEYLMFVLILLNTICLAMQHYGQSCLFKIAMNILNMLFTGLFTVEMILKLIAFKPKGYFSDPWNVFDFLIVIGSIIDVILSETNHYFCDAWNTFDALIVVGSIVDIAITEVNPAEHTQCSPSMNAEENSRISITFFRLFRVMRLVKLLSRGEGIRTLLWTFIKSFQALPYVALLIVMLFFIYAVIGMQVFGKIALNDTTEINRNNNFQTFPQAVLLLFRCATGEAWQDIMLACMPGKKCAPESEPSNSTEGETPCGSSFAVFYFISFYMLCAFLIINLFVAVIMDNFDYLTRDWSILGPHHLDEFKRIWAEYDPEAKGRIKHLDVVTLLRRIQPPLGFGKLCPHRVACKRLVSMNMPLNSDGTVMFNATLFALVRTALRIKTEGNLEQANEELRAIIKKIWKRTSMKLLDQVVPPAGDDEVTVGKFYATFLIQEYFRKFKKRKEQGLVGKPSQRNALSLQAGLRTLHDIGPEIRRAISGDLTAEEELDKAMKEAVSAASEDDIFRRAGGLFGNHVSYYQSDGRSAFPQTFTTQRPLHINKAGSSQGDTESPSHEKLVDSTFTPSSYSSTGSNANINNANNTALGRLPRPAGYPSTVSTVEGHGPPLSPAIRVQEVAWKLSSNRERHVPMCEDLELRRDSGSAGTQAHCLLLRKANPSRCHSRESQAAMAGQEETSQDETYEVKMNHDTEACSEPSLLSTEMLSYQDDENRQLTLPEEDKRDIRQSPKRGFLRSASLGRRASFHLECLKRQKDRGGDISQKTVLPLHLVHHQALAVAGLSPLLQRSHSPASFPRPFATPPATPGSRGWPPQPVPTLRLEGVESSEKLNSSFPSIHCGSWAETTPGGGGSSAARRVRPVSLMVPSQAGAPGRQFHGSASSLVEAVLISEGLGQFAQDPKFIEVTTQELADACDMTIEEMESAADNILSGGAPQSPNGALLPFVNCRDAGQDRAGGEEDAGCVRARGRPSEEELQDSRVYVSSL
Sequence of Nav1.5 (Q14524 whole entry): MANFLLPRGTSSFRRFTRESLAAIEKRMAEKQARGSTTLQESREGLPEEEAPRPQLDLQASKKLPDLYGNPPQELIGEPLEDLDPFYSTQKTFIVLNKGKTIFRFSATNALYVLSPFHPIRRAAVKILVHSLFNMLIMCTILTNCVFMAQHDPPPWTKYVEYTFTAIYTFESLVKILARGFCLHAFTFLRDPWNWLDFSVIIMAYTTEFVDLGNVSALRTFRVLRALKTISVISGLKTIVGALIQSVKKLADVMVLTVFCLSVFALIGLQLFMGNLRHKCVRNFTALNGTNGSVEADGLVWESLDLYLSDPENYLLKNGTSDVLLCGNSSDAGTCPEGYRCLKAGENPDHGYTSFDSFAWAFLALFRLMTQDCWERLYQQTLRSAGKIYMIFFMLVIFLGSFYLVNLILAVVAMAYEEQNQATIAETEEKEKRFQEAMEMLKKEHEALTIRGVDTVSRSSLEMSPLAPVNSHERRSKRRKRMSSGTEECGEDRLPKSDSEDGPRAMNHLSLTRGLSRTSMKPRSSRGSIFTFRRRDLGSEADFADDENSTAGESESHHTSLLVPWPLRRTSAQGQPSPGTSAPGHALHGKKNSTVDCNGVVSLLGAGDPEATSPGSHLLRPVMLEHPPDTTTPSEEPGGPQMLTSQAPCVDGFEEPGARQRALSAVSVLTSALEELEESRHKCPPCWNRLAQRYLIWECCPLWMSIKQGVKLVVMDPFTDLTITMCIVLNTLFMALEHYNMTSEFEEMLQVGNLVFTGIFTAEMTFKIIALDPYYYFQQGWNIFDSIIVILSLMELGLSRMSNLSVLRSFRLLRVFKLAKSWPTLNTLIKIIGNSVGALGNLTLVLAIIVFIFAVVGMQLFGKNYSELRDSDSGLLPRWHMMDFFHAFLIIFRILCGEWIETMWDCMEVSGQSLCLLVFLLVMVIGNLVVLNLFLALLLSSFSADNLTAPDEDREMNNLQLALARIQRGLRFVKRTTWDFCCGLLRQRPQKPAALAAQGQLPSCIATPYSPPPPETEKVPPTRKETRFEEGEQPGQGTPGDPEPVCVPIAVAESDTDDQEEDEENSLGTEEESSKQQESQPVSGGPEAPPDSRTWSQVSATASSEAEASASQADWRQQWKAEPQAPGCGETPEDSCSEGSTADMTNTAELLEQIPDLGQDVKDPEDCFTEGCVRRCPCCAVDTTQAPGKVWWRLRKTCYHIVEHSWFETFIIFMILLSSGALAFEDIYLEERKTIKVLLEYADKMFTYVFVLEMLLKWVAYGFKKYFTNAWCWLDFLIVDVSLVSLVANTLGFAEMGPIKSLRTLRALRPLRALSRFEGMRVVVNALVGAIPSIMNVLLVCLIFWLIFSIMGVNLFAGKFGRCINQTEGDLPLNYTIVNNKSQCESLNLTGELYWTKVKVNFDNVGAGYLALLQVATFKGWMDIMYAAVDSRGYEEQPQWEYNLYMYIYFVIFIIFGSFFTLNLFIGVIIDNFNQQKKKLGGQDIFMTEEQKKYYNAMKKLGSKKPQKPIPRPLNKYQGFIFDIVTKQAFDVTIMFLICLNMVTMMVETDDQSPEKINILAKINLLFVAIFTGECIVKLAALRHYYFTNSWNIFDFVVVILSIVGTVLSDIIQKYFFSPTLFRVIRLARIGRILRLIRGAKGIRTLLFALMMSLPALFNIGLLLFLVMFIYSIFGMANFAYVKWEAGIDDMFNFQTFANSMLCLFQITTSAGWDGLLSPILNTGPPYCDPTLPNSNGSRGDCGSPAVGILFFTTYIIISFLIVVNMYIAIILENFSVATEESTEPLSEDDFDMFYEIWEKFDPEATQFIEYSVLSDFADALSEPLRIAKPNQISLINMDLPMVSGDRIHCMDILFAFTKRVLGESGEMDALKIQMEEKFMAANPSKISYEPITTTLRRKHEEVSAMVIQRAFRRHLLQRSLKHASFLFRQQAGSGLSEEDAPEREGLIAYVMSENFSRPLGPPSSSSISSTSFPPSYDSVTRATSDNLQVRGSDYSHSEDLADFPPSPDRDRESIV

Structure (SMILES) | solubility kinetic [1] [µM] | DC50 (Estrogen receptor [2]) [nM] | EC50 (MCF7) [nM] | CLint scaled at 1 h, 1 µM (in vitro [3]; microsomes) [L/h/kg] | CLint scaled at 1 h, 1 µM (in vitro [4]; microsomes) [L/h/kg] | logD [7] | CLint scaled at 1 h (in vitro [9]; hepatocytes) [L/h/kg] | CLint scaled at 1 h (in vitro [10]; hepatocytes) [L/h/kg] | other results
C[C@@H]1Cc2c([nH]c3ccccc23)[C@@H](c2c(F)cc(N[C@H]3CCN(CCCF)C3)cc2F)N1CC(F)(F)CO | 80 (≈ 42.9 µg/mL) | 0.16 | 0.3 | 0.66 | 1.56 |  |  |  | 
C[C@@H]1Cc2c([nH]c3ccccc23)[C@@H](c2c(F)cc(O[C@H]3CCN(CCCF)C3)cc2F)N1CC(F)(F)CO | 35 (≈ 18.8 µg/mL) | 0.12 | 0.3 | 0.9 | 2.1 |  |  |  | 
CC/C(=C(/c1ccc(/C=C/C(=O)O)cc1)c1ccc2[nH]ncc2c1)c1ccc(F)cc1Cl [BRILANESTRANT] | 19 (≈ 8.49 µg/mL) |  | 17 |  |  | 3.8 | 0.9 | 0.36 | clearance [5]: 2.4 L/h/kg; Papp A→B at 3 h, 10 µM [6]: 23 nm/s; bioavailability (in vivo [8]): 30%
C[C@@H]1Cc2c(ccc3[nH]ncc23)[C@@H](c2c(F)cc(OCCN3CC(CF)C3)cc2F)N1CC(C)(C)F | 1 (≈ 0.505 µg/mL) | 0.06 | 0.8 | 1.02 | 2.64 |  |  |  | IC50 (Estrogen receptor [11]): 0.2 nM
C[C@@H]1Cc2c([nH]c3ccc(F)cc23)[C@@H](c2c(F)cc(NC3CN(CCCF)C3)cc2F)N1CC(F)(F)CO |  |  | 0.5 |  |  |  |  |  | inhibition at 10 µM (Nav1.5): 14%; inhibition at 10 µM (Cav1.2): 10.7%; CL free [12]: 88.5 L/h/kg; clearance (in vivo [13]): 1.08 L/h/kg; CLint scaled at 1 h (in vitro [9]; human hepatocytes): 0.6 L/h/kg; CLint scaled at 1 h (in vitro [10]; rat hepatocytes): 0.9 L/h/kg; CLint scaled at 1 h, 1 µM (in vitro [3]; human liver microsomes): 0.6 L/h/kg; CLint scaled at 1 h, 1 µM (in vitro [4]; rat liver microsomes): 0.84 L/h/kg
C[C@@H]1Cc2c([nH]c3ccccc23)[C@@H](c2c(F)cc(NC3CN(CCC(F)F)C3)cc2F)N1CC(F)(F)CO | 42 (≈ 22.7 µg/mL) | 0.02 | 0.8 | 0.72 | 1.5 |  |  |  | IC50 (Estrogen receptor [11]): 0.09 nM
C[C@@H]1Cc2c([nH]c3ccccc23)[C@@H](c2c(F)cc(NCCNCCCF)cc2F)N1CC(F)(F)CO | 199 (≈ 102 µg/mL) | 0.27 | 0.6 | 0.42 | < 0.36 |  |  |  | Emax [14]: 90%
CC1=C(c2cccc(O)c2)[C@H](c2ccc(OCCN3CC(CF)C3)cc2)Oc2ccc(O)cc21 | 47 (≈ 21.7 µg/mL) |  |  |  |  |  |  | 2.76 | Papp A→B at 3 h, 10 µM [6]: 46 nm/s; Emax [14]: 97%; T1/2 [15]: 6 h; bioavailability (in vivo [8]): 17%
C[C@@H]1Cc2c([nH]c3ccccc23)[C@@H](c2c(F)cc(OC3CN(CCCO)C3)cc2F)N1CC(F)(F)CO | 163 (≈ 85 µg/mL) | 0.03 | 0.6 | 0.54 | 0.6 |  |  |  | IC50 (Estrogen receptor [11]): 0.08 nM
C[C@@H]1Cc2c([nH]c3ccccc23)[C@@H](c2ccc(NC3CN(CCCF)C3)nc2)N1CC(F)(F)CO | 114 (≈ 55.6 µg/mL) | > 1000 | > 200 | 0.36 | 1.38 |  |  |  | IC50 (Estrogen receptor [11]): > 1000 nM
C[C@@H]1Cc2c([nH]c3ccccc23)[C@@H](c2c(F)cc(OC3CN(CCCF)C3)cc2F)N1CC(C)(C)F | 1 (≈ 0.504 µg/mL) |  | 0.7 |  |  | 4.8 | 0.42 | 1.74 | clearance [5]: 1.14 L/h/kg; Papp A→B at 3 h, 10 µM [6]: 4 nm/s; clearance (in vivo [13]): 1.14 L/h/kg; bioavailability (in vivo [16]): 31%
C[C@@H]1Cc2c([nH]c3cccc(F)c23)[C@@H](c2c(F)cc(NC3CN(CCCF)C3)cc2F)N1CC(F)(F)CO | 92 (≈ 49.7 µg/mL) | 0.04 | 0.5 | 0.72 | 1.14 | 3.3 | 0.72 | 1.38 | Papp A→B at 3 h, 10 µM [6]: 9 nm/s; IC50 (Estrogen receptor [11]): 0.15 nM; clearance (in vivo [13]): 1.62 L/h/kg
CC/C(=C(\c1ccc(O)cc1)c1ccc(OCCN(C)C)cc1)c1ccccc1 [AFIMOXIFENE] | 31 (≈ 12 µg/mL) |  | 3.5 |  |  | 4 | 0.84 | 1.92 | 
CC/C(=C(\c1ccccc1)c1ccc(OCCN(C)C)cc1)c1ccccc1 [TAMOXIFEN] |  |  | > 200 |  |  |  | 0.72 | 1.98 | clearance [5]: 5.7 L/h/kg; bioavailability (in vivo [8]): 69%
C[C@@H]1Cc2c([nH]c3ccccc23)[C@@H](c2c(F)cc(OCCNCCCF)cc2F)N1CC(F)(F)CO |  |  | 0.9 |  |  |  |  |  | 
C[C@@H]1Cc2c([nH]c3ccccc23)[C@@H](c2c(F)cc(OCCN3CC(CF)C3)cc2F)N1CC(C)(C)F | 10 (≈ 5.04 µg/mL) |  | 1 | 0.6 | 1.74 | 4 | 0.36 | 1.74 | clearance [5]: 2.04 L/h/kg; bioavailability (in vivo [16]): 31%
C[C@]12CC[C@@H]3c4ccc(O)cc4C[C@@H](CCCCCCCCC[S+]([O-])CCCC(F)(F)C(F)(F)F)[C@H]3[C@@H]1CC[C@@H]2O (stereo not given in full) [FULVESTRANT] | 3 (≈ 1.82 µg/mL) |  | 2.4 |  |  | > 5 | 0.9 | 1.74 | Emax [14]: 103%; T1/2 [15]: 2.2 h

— ChEMBL document CHEMBL4825708 (J Med Chem, 2021)
